Assay in all cases: HotSpot kinase profiling
Holding throughout (assay type): biochemical

The target in one experiment is T1, TTBK2 (Homo sapiens, UniProt Q6IQ55).
T1 construct: purchased Reaction Biology Corp
In short, it runs like this:
(§1)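 Radiometric kinase assay with P81 filter capture; each kinase was added to fresh substrate plus cofactors in reaction buffer and incubated 2 h at room temperature. Unreacted phosphate was washed off with 0.1% phosphoric acid before detection; percent inhibition is relative to DMSO control, averaged over replicates.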

The next experiment concerns the target T2, STK38/NDR1 (Homo sapiens, UniProt Q15208).
T2 construct: purchased Reaction Biology Corp
In short, it runs like this: as §1

A further experiment addresses T3, STK32B/YANK2 (Homo sapiens, UniProt Q9NY57).
T3 construct: purchased Reaction Biology Corp
In short, it runs like this:
as §1

The next experiment deals with T4, BRK (Homo sapiens, UniProt Q13882).
T4 construct: purchased Reaction Biology Corp
T4 sequence (Q13882 whole entry): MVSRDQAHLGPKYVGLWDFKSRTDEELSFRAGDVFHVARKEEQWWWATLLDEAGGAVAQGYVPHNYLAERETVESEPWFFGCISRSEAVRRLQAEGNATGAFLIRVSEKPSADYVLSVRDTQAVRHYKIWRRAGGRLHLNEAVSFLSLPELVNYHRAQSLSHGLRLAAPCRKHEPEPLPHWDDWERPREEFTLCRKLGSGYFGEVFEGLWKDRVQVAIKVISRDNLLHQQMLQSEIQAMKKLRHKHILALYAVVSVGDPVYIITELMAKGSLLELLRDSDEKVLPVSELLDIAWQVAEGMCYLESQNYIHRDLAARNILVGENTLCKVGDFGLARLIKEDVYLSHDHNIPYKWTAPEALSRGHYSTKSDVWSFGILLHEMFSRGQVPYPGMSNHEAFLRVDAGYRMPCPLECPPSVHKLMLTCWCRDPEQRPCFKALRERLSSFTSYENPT
In short, it runs like this: as §1

The next experiment deals with T5, MYO3b (Homo sapiens, UniProt Q8WXR4).
T5 construct: purchased Reaction Biology Corp
T5 sequence (Q8WXR4 1-1341): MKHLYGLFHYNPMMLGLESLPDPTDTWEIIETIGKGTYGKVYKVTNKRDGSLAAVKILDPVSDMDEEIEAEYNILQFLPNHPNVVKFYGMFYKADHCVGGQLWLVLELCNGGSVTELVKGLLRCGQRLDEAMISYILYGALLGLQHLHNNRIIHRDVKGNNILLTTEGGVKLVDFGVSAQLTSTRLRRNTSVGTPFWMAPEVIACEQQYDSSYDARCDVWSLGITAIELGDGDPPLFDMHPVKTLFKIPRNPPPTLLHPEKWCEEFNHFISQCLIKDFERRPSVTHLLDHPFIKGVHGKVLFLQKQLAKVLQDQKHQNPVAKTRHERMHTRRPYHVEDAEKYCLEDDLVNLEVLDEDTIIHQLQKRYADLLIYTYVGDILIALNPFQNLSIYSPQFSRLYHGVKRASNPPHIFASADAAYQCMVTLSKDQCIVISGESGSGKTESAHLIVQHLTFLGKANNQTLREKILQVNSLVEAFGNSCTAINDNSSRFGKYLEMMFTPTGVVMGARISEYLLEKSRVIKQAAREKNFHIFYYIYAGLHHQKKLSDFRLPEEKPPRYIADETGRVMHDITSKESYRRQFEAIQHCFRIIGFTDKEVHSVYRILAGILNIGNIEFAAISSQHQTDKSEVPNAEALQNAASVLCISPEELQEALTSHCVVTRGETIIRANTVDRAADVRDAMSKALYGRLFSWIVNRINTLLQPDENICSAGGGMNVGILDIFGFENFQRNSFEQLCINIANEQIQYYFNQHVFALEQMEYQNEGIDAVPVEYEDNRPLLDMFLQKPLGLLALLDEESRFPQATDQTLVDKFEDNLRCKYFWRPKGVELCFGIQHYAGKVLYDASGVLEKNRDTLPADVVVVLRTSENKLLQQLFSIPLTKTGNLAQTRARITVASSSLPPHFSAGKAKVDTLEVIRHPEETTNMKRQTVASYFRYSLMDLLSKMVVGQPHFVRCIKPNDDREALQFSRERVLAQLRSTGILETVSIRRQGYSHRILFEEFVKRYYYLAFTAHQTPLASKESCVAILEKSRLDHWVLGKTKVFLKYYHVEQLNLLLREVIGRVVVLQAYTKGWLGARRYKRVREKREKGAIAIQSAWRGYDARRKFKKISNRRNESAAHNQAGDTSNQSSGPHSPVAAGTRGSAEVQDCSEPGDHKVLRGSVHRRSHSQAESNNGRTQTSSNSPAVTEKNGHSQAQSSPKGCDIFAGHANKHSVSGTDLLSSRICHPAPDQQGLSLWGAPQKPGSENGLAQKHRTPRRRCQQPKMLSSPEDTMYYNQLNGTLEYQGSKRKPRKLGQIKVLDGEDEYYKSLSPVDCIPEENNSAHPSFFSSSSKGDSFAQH
In short, it runs like this:
as §1

Setting [1] is: read-out: % Enzyme Activity (relative to DMSO controls) Run 1.
Setting [2] is: read-out: % Enzyme Activity (relative to DMSO controls) Run 2.

Like-named read-outs stand apart in the source and are kept apart here.

T3 sequence (Q9NY57 whole entry): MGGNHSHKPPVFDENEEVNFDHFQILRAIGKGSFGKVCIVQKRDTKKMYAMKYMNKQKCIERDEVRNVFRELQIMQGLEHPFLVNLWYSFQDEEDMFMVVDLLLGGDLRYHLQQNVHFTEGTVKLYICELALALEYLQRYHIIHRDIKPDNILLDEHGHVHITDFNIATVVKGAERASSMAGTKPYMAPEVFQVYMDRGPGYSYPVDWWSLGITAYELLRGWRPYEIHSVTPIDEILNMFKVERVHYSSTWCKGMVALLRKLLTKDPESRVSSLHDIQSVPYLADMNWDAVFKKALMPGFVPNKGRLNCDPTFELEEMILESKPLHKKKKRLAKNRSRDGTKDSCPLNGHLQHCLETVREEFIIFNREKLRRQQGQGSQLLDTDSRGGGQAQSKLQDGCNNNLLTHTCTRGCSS
T1 sequence (Q6IQ55 whole entry): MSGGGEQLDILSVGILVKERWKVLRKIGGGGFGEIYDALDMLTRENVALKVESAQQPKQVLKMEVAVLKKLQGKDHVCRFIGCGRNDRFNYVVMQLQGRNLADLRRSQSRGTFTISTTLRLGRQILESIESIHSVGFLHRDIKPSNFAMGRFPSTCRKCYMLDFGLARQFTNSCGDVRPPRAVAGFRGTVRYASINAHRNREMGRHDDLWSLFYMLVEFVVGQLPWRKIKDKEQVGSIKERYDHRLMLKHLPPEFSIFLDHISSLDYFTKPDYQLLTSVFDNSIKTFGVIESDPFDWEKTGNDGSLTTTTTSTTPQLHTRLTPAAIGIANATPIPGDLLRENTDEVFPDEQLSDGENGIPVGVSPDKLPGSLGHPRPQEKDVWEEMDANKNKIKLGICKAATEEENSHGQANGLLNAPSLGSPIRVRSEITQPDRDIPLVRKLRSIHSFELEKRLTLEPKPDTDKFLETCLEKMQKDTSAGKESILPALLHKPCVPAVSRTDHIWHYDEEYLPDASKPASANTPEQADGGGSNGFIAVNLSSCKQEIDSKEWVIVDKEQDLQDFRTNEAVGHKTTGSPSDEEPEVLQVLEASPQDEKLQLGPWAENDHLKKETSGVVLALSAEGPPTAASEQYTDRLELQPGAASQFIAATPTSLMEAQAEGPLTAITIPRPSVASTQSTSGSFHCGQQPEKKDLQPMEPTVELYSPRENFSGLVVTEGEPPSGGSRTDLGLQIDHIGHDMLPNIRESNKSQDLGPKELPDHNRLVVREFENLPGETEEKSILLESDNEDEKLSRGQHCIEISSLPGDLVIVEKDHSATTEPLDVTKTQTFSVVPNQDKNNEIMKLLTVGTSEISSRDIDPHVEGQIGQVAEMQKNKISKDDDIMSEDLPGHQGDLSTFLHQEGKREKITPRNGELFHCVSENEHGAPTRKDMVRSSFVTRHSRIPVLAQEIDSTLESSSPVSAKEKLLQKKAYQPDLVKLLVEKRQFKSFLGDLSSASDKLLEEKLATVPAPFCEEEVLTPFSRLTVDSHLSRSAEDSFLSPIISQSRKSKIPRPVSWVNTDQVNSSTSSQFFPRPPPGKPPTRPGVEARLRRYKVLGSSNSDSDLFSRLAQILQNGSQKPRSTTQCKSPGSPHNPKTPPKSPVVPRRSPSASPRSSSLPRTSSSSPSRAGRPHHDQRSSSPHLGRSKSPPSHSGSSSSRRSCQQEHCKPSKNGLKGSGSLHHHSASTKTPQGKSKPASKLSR
T2 sequence (Q15208 whole entry): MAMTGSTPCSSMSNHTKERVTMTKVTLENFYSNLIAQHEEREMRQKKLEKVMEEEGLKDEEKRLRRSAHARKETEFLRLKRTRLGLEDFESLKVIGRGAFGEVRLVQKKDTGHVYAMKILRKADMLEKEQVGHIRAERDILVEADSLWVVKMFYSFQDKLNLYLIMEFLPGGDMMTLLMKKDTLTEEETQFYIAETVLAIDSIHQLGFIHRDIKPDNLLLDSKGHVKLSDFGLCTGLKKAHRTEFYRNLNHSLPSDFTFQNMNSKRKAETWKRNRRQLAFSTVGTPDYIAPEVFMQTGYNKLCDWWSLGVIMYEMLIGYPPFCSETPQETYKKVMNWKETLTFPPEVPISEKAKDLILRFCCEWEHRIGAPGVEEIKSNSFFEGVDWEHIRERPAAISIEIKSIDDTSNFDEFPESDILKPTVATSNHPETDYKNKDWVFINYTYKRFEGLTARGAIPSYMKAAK

A word on the inhibition: it is the drop in the measured response relative to a control, in per cent. For the compound `C=CC(=O)Nc1cccc(Nc2nc(Nc3ccc(OCCOC)c(F)c3)ncc2F)c1` [Compound 2], the inhibition at 3 µM on TTBK2 is -0.86%; on STK38/NDR1 it was 6.79%; at STK32B/YANK2, 5.3%; against BRK, 75%; against MYO3b, -2.59%. In addition, the remaining activity at 3 µM on TTBK2 (setting [1]) is 102%; at TTBK2 (setting [2]), 99.7%; at STK38/NDR1 (setting [1]), 92.7%; at STK38/NDR1 (setting [2]), 93.7%; at STK32B/YANK2 (setting [1]), 95.8%; on STK32B/YANK2 (setting [2]), 93.6%. In addition, the remaining activity at 3 µM on BRK (setting [1]) came out at 25.1%; on BRK (setting [2]) it was 25%; at MYO3b (setting [1]), 104%; on MYO3b (setting [2]) it was 102%.

Source of the values: patent US9492471B2, “Methods of treating a disease or disorder associated with Bruton'S Tyrosine Kinase” (Celgene Avilomics Research, Inc., priority 2013, dated 2016).
